{"source": "patent US6709666B2", "about": "“Insecticidal mat and heat-transpiration insecticidal method using the same” (Dainihon Jochugiku Co., Ltd., priority 2000, dated 2004)", "origin": "cited, not measured here", "settings": "at 20° C."}
{"smiles": "C#CC(OC(=O)C1C(C=C(C)C)C1(C)C)/C(C)=C/CC", "note": "(stereo not shown) [empenthrin]", "values": [{"measurement": "vapor pressure", "result": 87, "unit": "mPa"}]}
